Measured values: patent US8586551B2, “18-membered macrocycles and analogs thereof” (Optimer Pharmaceuticals, Inc., priority 2005, dated 2013)

Columns and labels:
[1] = test system: C. difficile clinical isolates; assay: MIC via agar dilution versus 110 clinical isolates of C. difficile; format: cell-based; details: 110 clinical isolates
C. difficile = assay: Post-antibiotic effect (PAE) in C. difficile; format: cell-based; details: at 4× the MIC, clinical isolate LC3
Experimental: The term “PAE” or “post-antibiotic effect” refers to a well-established pharmacodynamic parameter that reflects the persistent suppression of bacterial growth following antibiotic exposure.
Vancomycin and rifampin were tested additionally versus LC3.
Because of the long duration of this effect, an exact PAE was not calculated.

Row | SMILES | MIC range [1] [µg/mL] | PAE (C. difficile)
1 | Cc1ncc([N+](=O)[O-])n1CCO [Metronidazole, reference compound] | 0.025 to 0.5 | 
2 | CN[C@H](CC(C)C)C(=O)N[C@H]1C(=O)N[C@@H](CC(N)=O)C(=O)N[C@H]2C(=O)N[C@H]3C(=O)N[C@H](C(=O)N[C@H](C(=O)O)c4cc(O)cc(O)c4-c4cc3ccc4O)[C@H](O)c3ccc(c(Cl)c3)Oc3cc2cc(c3O[C@@H]2O[C@H](CO)[C@@H](O)[C@H](O)[C@H]2O[C@H]2C[C@](C)(N)[C@H](O)[C@H](C)O2)Oc2ccc(cc2Cl)[C@H]1O [Vancomycin, reference compound] | 0.06 to 4 | less than an hour
